Test results as given in US9346829B2, “5-HT3 receptor antagonists” (Takeda Phamaceutical Company Limited, priority 2012, dated 2016).
Where a name gives a salt, the structure may show the parent alone. Read-outs that look alike come from different tables or passages of the source.

How the values were obtained:
5-HT3a receptor = 5-HT3a receptor (Homo sapiens (Human), UniProt P46098); assay: Inhibition of Ca flux activity of 5-HT3 in vitro assay; type: cell-based
Procedure: The 5-HT3 antagonist activity of the compounds of the invention was determined by measuring the ability of the compounds to inhibit the calcium flux activity of […] receptor expressed in HEK-293T cells. HEK-293T cells were transfected with the 5-HT3a expression construct using Xtreme Gene 9 (Roche) in 150 mm tissue culture treated plates and incubated for 24 hours at 37° C. Cells were then split and plated at a density of 60K cells/well in poly-lysine coated, black 96-well plates with clear bottoms (BD BioSciences) and incubated overnight at 37° C. Growth media was removed and cells loaded with 200 uL calcium indicator dye in HBSS containing 20 mM HEPES (Calcium 5 Assay kit, Molecular Devices) and incubated at 37° C. for 1 hour. While cells were incubating, the 10× antagonist and agonist/antagonist addition plates were made. For 10× antagonist plate: half log serial dilutions (final concentrations range from 10^−7 through 10^−10 with the bottom well a negative, no ligand control) were made from test compounds in DMSO at a 1000× concentration and then diluted to 10× in HBSS/20 mM HEPES. For addition plate: 5HT was diluted to 100× in HBSS/20 mM HEPES (final concentration in the assay—216 nM) and 15 uL was added to each well of the addition plate, 15 uL of 10× compound was also added to the addition plate, and finally 120 uL of HBSS/20 mM HEPES (for a total of 150 uL). Cells were then removed from the incubator and equilibrated to room temperature for 10 minutes, then 22.5 uL of 10× test compounds were added in triplicate to the plates and incubated at room temperature for 10 minutes (Tropisetron was used as a positive control in every assay). Test plate and addition plate were loaded into the FlexStation III (Molecular Devices), and using the fluidics, 22.5 uL compound additions were made (at t=˜17 seconds), and fluorescence was measured for 90 seconds, reading every 2.2 seconds. Data sets were analyzed as max minus min using Software Max Pro (Molecular Devices). IC50 curves were generated using non-linear regression in GraphPad Prism.

nicotinic α-7 receptor = nicotinic α-7 receptor (Homo sapiens (Human), UniProt P36544); assay: Nicotinic α-7 receptor binding assay; details: binding at the nicotinic α-7 receptor, carried out at Eurofins Pharma Services
Chain of nicotinic α-7 receptor (P36544 23-502): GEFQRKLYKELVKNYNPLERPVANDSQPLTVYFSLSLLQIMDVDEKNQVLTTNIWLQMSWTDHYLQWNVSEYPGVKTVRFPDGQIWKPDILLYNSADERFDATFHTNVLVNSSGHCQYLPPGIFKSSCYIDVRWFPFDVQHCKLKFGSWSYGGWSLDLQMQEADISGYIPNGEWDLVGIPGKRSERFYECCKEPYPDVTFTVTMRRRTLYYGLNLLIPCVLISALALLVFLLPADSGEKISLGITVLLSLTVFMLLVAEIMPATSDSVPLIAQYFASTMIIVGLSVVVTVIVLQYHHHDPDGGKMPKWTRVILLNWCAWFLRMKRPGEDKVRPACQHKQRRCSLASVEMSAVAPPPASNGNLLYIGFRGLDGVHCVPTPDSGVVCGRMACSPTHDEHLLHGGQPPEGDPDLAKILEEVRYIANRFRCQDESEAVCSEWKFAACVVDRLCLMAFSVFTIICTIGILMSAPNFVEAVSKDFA
Procedure: The evaluation of binding at the nicotinic α-7 receptor was carried out at Eurofins Pharma Services.

[1] = approximate IC50, calcium flux, 5-HT3a expressed in HEK-293T cells, 5HT 216 nM, read-out: IC50

Chain of 5-HT3a receptor (P46098 24-478): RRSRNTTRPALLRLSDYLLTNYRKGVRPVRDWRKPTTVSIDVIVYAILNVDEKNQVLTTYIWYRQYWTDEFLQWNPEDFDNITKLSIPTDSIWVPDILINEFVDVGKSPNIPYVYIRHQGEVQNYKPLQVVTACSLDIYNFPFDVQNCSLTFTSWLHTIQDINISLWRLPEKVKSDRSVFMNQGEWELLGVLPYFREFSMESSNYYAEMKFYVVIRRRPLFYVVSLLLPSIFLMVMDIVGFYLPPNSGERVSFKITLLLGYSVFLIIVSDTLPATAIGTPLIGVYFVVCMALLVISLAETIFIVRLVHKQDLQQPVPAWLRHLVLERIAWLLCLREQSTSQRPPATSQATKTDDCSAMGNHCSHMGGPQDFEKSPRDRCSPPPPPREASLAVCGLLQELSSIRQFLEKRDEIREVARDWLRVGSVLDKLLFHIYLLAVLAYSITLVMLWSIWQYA

Structure (SMILES) | IC50 (5-HT3a receptor; [1]) [nM] | IC50 (5-HT3a receptor) [nM] | IC50 (nicotinic α-7 receptor) [nM]
CN1[C@@H]2COC[C@H]1C[C@@H](NC(=O)c1cn(-c3cccnc3)c3ccccc13)C2 [Compound 2, N-((1R,5S,7S)-9-methyl-3-oxa-9-azabicyclo[3.3.1]nonan-7-yl)-1-(pyridin-3-yl)-1H-indole-3-carboxamide, 2,2,2-trifluoroacetate] | 0.51 | – | –
CN1[C@@H]2COC[C@H]1C[C@@H](NC(=O)c1cn(-c3ccccn3)c3ccccc13)C2 [Compound 3, N-((1R,5S,7S)-9-methyl-3-oxa-9-azabicyclo[3.3.1]nonan-7-yl)-1-(pyridin-2-yl)-1H-indole-3-carboxamide, 2,2,2-trifluoroacetate] | 0.96 | – | –
CN1[C@@H]2COC[C@H]1CC(NC(=O)c1cn(-c3ccncc3)c3ccccc13)C2 (stereo partly drawn) [Compound 4, N-((1R,5S,7S)-9-methyl-3-oxa-9-azabicyclo[3.3.1]nonan-7-yl)-1-(pyridin-4-yl)-1H-indole-3-carboxamide, 2,2,2-trifluoroacetate] | 0.69 | – | –
O=C(O[C@H]1C[C@H]2COC[C@@H](C1)N2)c1cn(-c2cccnc2)c2ccccc12 [Compound 5, (1R,5S,7S)-3-oxa-9-azabicyclo [3.3.1]nonan-7-yl 1-(pyridin-3-yl)-1H-indole-3-carboxylate, 2,2,2-trifluoroacetate] | 0.62 | – | –
CN1[C@@H]2COC[C@H]1CC(NC(=O)c1cn(-c3cccnc3)c3ccccc13)C2 (stereo partly drawn) [Compound 6, N-((1R,5S,7S)-9-methyl-d3-3-oxa-9-azabicyclo[3.3.1]nonan-7-yl)-1-(pyridin-3-yl)-1H-indole-3-carboxamide, 2,2,2-trifluoroacetate] | 1.1 | – | –
CN1[C@@H]2COC[C@H]1C[C@@H](OC(=O)c1cn(-c3ccccn3)c3ccccc13)C2 [Compound 7, (1R,5S,7S)-9-methyl-d3-3-oxa-9-azabicyclo[3.3.1]nonan-7-yl 1-(pyridin-2-yl)-1H-indole-3-carboxylate, 2,2,2-trifluoroacetate] | 2.86 | – | –
CN1[C@@H]2COC[C@H]1C[C@@H](NC(=O)c1cn(-c3ccccn3)c3ccccc13)C2 [Compound 8, N-((1R,5S,7S)-9-methyl-d3-3-oxa-9-azabicyclo[3.3.1]nonan-7-yl)-1-(pyridin-2-yl)-1H-indole-3-carboxamide, 2,2,2-trifluoroacetate] | 0.81 | – | –
Cn1cc(-n2cc(C(=O)O[C@H]3C[C@H]4COC[C@@H](C3)N4)c3ccccc32)cn1 [Compound 9, (1R,5S,7S)-3-oxa-9-azabicyclo [3.3.1]nonan-7-yl 1-(1-methyl-1H-pyrazol-4-yl)-1H-indol-3-carboxylate, 2,2,2-trifluoroacetic acid salt] | 0.68 | – | –
CN1[C@@H]2COC[C@H]1C[C@@H](NC(=O)c1cn(-c3ccccn3)c3ncccc13)C2 [Compound 10, N-(1R,5S,7S)-9-methyl-3-oxa-9-azabicyclo[3.3.1]nonan-7-yl)-1-(pyridin-2-yl)-1H-pyrrolo[2,3-b]pyridine-3-carboxamide, 2,2,2-trifluoroacetic acid salt] | 0.65 | – | –
CN1[C@@H]2COC[C@H]1C[C@@H](NC(=O)c1cn(-c3cccnc3)c3ncccc13)C2 [Compound 11, N-((1R,5S,7S)-9-methyl-3-oxa-9-azabicyclo[3.3.l]nonan-7-yl)-1-(pyridin-3-yl)-1H-pyrrolo[2,3-b]pyridine-3-carboxamide, 2,2,2-trifluoroacetic acid salt] | 0.6 | – | –
CN1[C@@H]2COC[C@H]1C[C@@H](NC(=O)c1cn(-c3ccccn3)c3ncc(F)cc13)C2 [Compound 12, 5-fluoro-N-((1R,5S,7S)-9-methyl-3-oxa-9-azabicyclo [3.3.1]nonan-7-yl)-1-(pyridin-2-yl)-1H-pyrrolo[2,3-b]pyridine-3-carboxamide, 2,2,2-trifluoroacetic acid salt] | 0.882 | – | –
CN1[C@@H]2COC[C@H]1C[C@@H](NC(=O)c1cn(-c3cccnc3)c3ncc(F)cc13)C2 [Compound 13, 5-fluoro-N-((1R,5S,7S)-9-methyl-3-oxa-9-azabicyclo [3.3.1]nonan-7-yl)-1-(pyridin-3-yl)-1H-pyrrolo[2,3-b]pyridine-3-carboxamide, 2,2,2-trifluoroacetic acid salt] | 0.72 | – | –
CN1[C@@H]2COC[C@H]1C[C@@H](NC(=O)c1nn(-c3ccccn3)c3ccccc13)C2 [Compound 14, N-((1R,5S,7S)-9-methyl-3-oxa-9-azabicyclo[3.3.1]nonan-7-yl)-1-(pyridin-2-yl)-1H-indazole-3-carboxamide, 2,2,2-trifluoroacetic acid salt] | 1.34 | – | –
CN1[C@@H]2COC[C@H]1C[C@@H](NC(=O)c1cn(-c3cnn(C)c3)c3ccccc13)C2 [Compound 15, 1-(1-methyl-1H-pyrazol-4-yl)-N-((1R,5S,7S)-9-methyl-3-oxa-9-azabicyclo[3.3.1]nonan-7-yl)-1H-indole-3-carboxamide, 2,2,2-trifluoroacetic acid salt] | 0.662 | 3.48 | > 10000
Cn1ccc(-n2cc(C(=O)O[C@H]3C[C@H]4COC[C@@H](C3)N4)c3ccccc32)n1 [Compound 16, (1R,5S,7S)-3-oxa-9-azabicyclo[3.3.1]nonan-7-yl 1-(1-methyl-1H-pyrazol-3-yl)-1H-indole-3-carboxylate, 2,2,2-trifluoroacetic acid salt] | 2.5 | – | –
CN1[C@@H]2COC[C@H]1C[C@@H](NC(=O)c1cn(-c3ccn(C)n3)c3ccccc13)C2 [Compound 17, 1-(1-methyl-1H-pyrazol-3-yl)-N-((1R,5S,7S)-9-methyl-3-oxa-9-azabicyclo [3.3.1]nonan-7-yl)-1H-indole-3-carboxamide, 2,2,2-trifluoroacetic acid salt] | 0.75 | – | –
CN1[C@@H]2COC[C@H]1C[C@@H](OC(=O)c1cn(-c3cnn(CCF)c3)c3ccccc13)C2 [Compound 18, (1R,5S,7S)-9-methyl-3-oxa-9-azabicyclo[3.3.1]nonan-7-yl 1-(1-(2-fluoroethyl)-1H-pyrazol-4-yl)-1H-indole-3-carboxylate, 2,2,2-trifluoroacetic acid salt] | 2.01 | – | –
N#Cc1cc(-n2cc(C(=O)O[C@H]3C[C@H]4COC[C@@H](C3)N4)c3ccccc32)ccn1 [Compound 19, (1R,5S,7S)-3-oxa-9-azabicyclo[3.3.1]nonan-7-yl 1-(2-cyanopyridin-4-yl)-1H-indole-3-carboxylate, 2,2,2-trifluoroacetic acid salt] | 3.68 | – | –
Cc1ncccc1-n1cc(C(=O)N[C@H]2C[C@H]3COC[C@@H](C2)N3C)c2ccccc21 [Compound 20, N-((1R,5S,7S)-9-methyl-3-oxa-9-azabicyclo[3.3.1]nonan-7-yl)-1-(2-methylpyridin-3-yl)-1H-indole-3-carboxamide, 2,2,2-trifluoroacetic acid salt] | 1.5 | – | –
Cc1ccncc1-n1cc(C(=O)N[C@H]2C[C@H]3COC[C@@H](C2)N3C)c2ccccc21 [Compound 21, N-((1R,5S,7S)-9-methyl-3-oxa-9-azabicyclo[3.3.1]nonan-7-yl)-1-(4-methylpyridin-3-yl)-1H-indole-3-carboxamide, 2,2,2-trifluoroacetic acid salt] | 1.1 | – | –
CN1[C@@H]2COC[C@H]1C[C@@H](NC(=O)c1cn(-c3ccnn3C)c3ccccc13)C2 [Compound 23, 1-(1-methyl-1H-pyrazol-5-yl)-N-((1R,5S,7S)-9-methyl-3-oxa-9-azabicyclo[3.3.1]nonan-7-yl)-1H-indole-3-carboxamide, 2,2,2-trifluoroacetic acid salt] | 1.01 | – | –
CN1[C@@H]2COC[C@H]1C[C@@H](NC(=O)c1cn(-c3cnn(C(F)F)c3)c3ccccc13)C2 [Compound 25, 1-(1-(difluoromethyl)-1H-pyrazol-4-yl)-N-((1R,5S,7S)-9-methyl-3-oxa-9-azabicyclo [3.3.1]nonan-7-yl)-1H-indole-3-carboxamide] | 1.39 | – | –
Cn1cc(-n2cc(C(=O)N[C@H]3C[C@H]4COC[C@@H](C3)N4)c3ccccc32)cn1 [Compound 28, N-((1R,5S,7S)-3-oxa-9-azabicyclo[3.3.1]nonan-7-yl)-1-(1-methyl-1H-pyrazol-4-yl)-1H-indole-3-carboxamide] | 2.04 | – | –
O=C(N[C@H]1C[C@H]2COC[C@@H](C1)N2)c1cn(-c2cn[nH]c2)c2ccccc12 [Compound 30, N-((1R,5S,7S)-3-oxa-9-azabicyclo[3.3.1]nonan-7-yl)-1-(1H-pyrazol-4-yl)-1H-indole-3-carboxamide] | 0.745 | – | –
CCN1[C@@H]2COC[C@H]1C[C@@H](NC(=O)c1cn(-c3cnn(C)c3)c3ccccc13)C2 [Compound 31, N-((1R,5S,7S)-9-ethyl-3-oxa-9-azabicyclo[3.3.1]nonan-7-yl)-1-(1-methyl-1H-pyrazol-4-yl)-1H-indole-3-carboxamide] | > 1000 | – | –
